From US8895585B2, “Nicotinamide derivative or salt thereof” (FUJIFILM Corporation, priority 2010, dated 2014)
pIC50: −log10 of the molar value. Where two headings read alike, the source gives them in different places.

Biological target: T1, glutathione S-transferase (GST)-fused full-length human Syk protein (Homo sapiens, UniProt P43405)
T1 construct: (GST)-fused full-length human Syk protein; GST (glutathione S-transferase); purchased Carna Biosciences
Assay: Syk enzyme assay
Type: biochemical
Procedure, shortened: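 IC50 values come from a time-resolved FRET readout (615 and 665 nm) of substrate phosphorylation, measured after an EDTA stop and 1 h antibody binding. The kinase reaction ran 40 min at room temperature with 27 μM ATP and 0.4 μM biotin-peptide, following a 15 min compound preincubation with baculovirus-made GST-full-length human Syk.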

[1] = Syk enzyme assay, Test Example 1, read-out: IC50 of Syk-inhibitory activity
[2] = read-out: Syk-inhibitory activity (IC50)

Row | Structure (SMILES) | pIC50 [1] | pIC50 [2]
1 | CCNc1nc(Nc2cnc3ccccc3c2)c(C(N)=O)cc1F [Example 006-020, 6-(ethylamino)-5-fluoro-2-(quinolin-3-ylamino)nicotinamide] | 6.00 to 7.00 | 
2 | CCNc1nc(Nc2cnc3ccccc3c2)c(C(N)=O)cc1F [Example 6-20, 6-(ethylamino)-5-fluoro-2-(quinolin-3-ylamino)nicotinamide] |  | ≥ 6.00
3 | Cc1nc2ccc(Nc3nc(NCCN)c(F)cc3C(N)=O)cc2s1 [Example 6-21, 6-((2-aminoethyl)amino)-5-fluoro-2-((2-methylbenzo[d]thiazol-6-yl)amino)nicotinamide] |  | ≥ 6.00
4 | Cc1nc2ccc(Nc3nc(NCCN)c(F)cc3C(N)=O)cc2o1 [Example 6-23, 6-((2-aminoethyl)amino)-5-fluoro-2-((2-methylbenzo[d]oxazol-6-yl)amino)nicotinamide] |  | ≥ 6.00
5 | CC(=O)Nc1cccc(Nc2nc(NCCN)c(F)cc2C(N)=O)c1 [Example 6-24, 2-((3-acetylaminophenyl)amino)-6-((2-aminoethyl)amino)-5-fluoronicotinamide] |  | ≥ 6.00
6 | Cn1ncc2ccc(Nc3nc(NCCN)c(F)cc3C(N)=O)cc21 [Example 6-27, 6-((2-aminoethyl)amino)-5-fluoro-2-((1-methyl-1H-indazol-6-yl)amino)nicotinamide] |  | ≥ 6.00
7 | CCNc1nc(Nc2ccc3ncsc3c2)c(C(N)=O)cc1F [Example 006-042, 2-((benzo[d]thiazol-6-yl)amino)-6-(ethylamino)-5-fluoronicotinamide] | 6.00 to 7.00 | 
8 | NCCNc1nc(Nc2cncc(-c3ccccc3)c2)c(C(N)=O)cc1F [Example 006-089, 6-((2-aminoethyl)amino)-5-fluoro-2-((5-phenylpyridin-3-yl)amino)nicotinamide] | 7.30 to 8.00 | 
9 | Cn1cccc1-c1cncc(Nc2nc(NCCN)c(F)cc2C(N)=O)c1 [Example 006-090, 6-((2-aminoethyl)amino)-5-fluoro-2-((5-(1-methyl-1H-pyrrol-2-yl)pyridin-3-yl)amino)nicotinamide] | 6.00 to 7.00 | 
10 | Cc1ccc(Nc2nc(NC[C@H](C)N)c(F)cc2C(N)=O)cn1 [Example 006-095, (S)-6-((2-aminopropyl)amino)-5-fluoro-2-((6-methylpyridin-3-yl)amino)nicotinamide] | 6.00 to 7.00 | 
11 | COc1cc(Nc2nc(N[C@H]3CCCC[C@H]3N)c(F)cc2C(N)=O)cc(OC)n1 [Example 006-115, 6-((1S,2R)-2-aminocyclohexylamino)-2-((2,6-dimethoxypyridin-4-yl)amino)-5-fluoronicotinamide] | 6.00 to 7.00 | 
12 | Cc1cncc(Nc2nc(NC[C@@H](N)c3ccccc3)c(F)cc2C(N)=O)c1 [Example 006-118, (S)-6-((2-amino-2-phenylethyl)amino)-5-fluoro-2-((5-methylpyridin-3-yl)amino)nicotinamide] | 6.00 to 7.00 | 
13 | NC(=O)c1cc(F)c(NC[C@@H](N)c2ccccc2)nc1Nc1cccc(-n2nccn2)c1 [Example 006-120, (S)-2-((3-(2H-1,2,3-triazol-2-yl)phenyl)amino)-6-((2-amino-2-phenylethyl)amino)-5-fluoronicotinamide] | 7.30 to 8.00 | 
14 | NC[C@H](Nc1nc(Nc2ccc3cccnc3c2)c(C(N)=O)cc1F)c1ccccc1 [Example 006-134, (R)-6-((2-amino-1-phenylethyl)amino)-5-fluoro-2-(quinolin-7-ylamino)nicotinamide] | 7.30 to 8.00 | 
15 | COc1cc(Nc2nc(N[C@H](c3ccccc3)[C@@H](N)c3ccccc3)c(F)cc2C(N)=O)ccn1 [Example 006-139] | 7.30 to 8.00 | 
16 | CC[C@H](N)C(C)Nc1nc(Nc2ccc3ncccc3c2)c(C(N)=O)cc1F (stereo partly drawn) [Example 006-149] | 7.30 to 8.00 | 
17 | CCC(Nc1nc(Nc2ccc3ncccc3c2)c(C(N)=O)cc1F)[C@@H](N)CC (stereo partly drawn) [Example 006-150, 6-(((4S)-4-aminohexan-3-yl)amino)-5-fluoro-2-(quinolin-6-ylamino)nicotinamide] | 7.30 to 8.00 | 
18 | CC[C@H](N)C(CC(C)C)Nc1nc(Nc2ccc3ncccc3c2)c(C(N)=O)cc1F (stereo partly drawn) [Example 006-151, 6-(((5S)-5-amino-2-methylheptan-4-yl)amino)-5-fluoro-2-(quinolin-6-ylamino)nicotinamide] | 7.30 to 8.00 | 
19 | CC(C)C(Nc1nc(Nc2ccc3ncccc3c2)c(C(N)=O)cc1F)[C@H](C)N (stereo partly drawn) [Example 006-158, 6-(((2S)-2-amino-4-methylpentan-3-yl)amino)-5-fluoro-2-(quinolin-6-ylamino)nicotinamide] | 7.30 to 8.00 | 
20 | CC(C)(C)[C@H](CN)Nc1nc(Nc2ccc3ncccc3c2)c(C(N)=O)cc1F [Example 006-162, (R)-6-((1-amino-3,3-dimethylbutan-2-yl)amino)-5-fluoro-2-(quinolin-6-ylamino)nicotinamide] | 7.00 to 7.30 | 
21 | NCC1(Nc2nc(Nc3ccc4ncccc4c3)c(C(N)=O)cc2F)CC1 [Example 006-171, 6-((1-(aminomethyl)cyclopropyl)amino)-5-fluoro-2-((quinolin-6-yl)amino)nicotinamide] | > 8.00 | 
22 | NC(=O)c1cc(F)c(NC2CCCC2N)nc1Nc1ccc2ncccc2c1 (stereo not drawn) [Example 006-175, 6-((cis-2-aminocyclopentyl)amino)-5-fluoro-2-(quinolin-6-yl)amino)nicotinamide] | 7.30 to 8.00 | 
23 | CC[C@H](Nc1nc(Nc2ccc3ncccc3c2)c(C(N)=O)cc1F)[C@H](C)N [Example 006-179, 6-(((2S,3S)-2-aminopentan-3-yl)amino)-5-fluoro-2-((quinolin-6-yl)amino)nicotinamide] | 7.00 to 7.30 | 

More lines, now with the values ahead:

Row | pIC50 [1] | pIC50 [2] | Structure (SMILES)
24 | 6.00 to 7.00 |  | C[C@H](N)[C@H](C)Nc1nc(Nc2ccc3ncccc3c2)c(C(N)=O)cc1F [Example 006-181, 6-(((2S,3S)-3-aminobutan-2-yl)amino)-5-fluoro-2-((quinolin-6-yl)amino)nicotinamide]
25 | 7.30 to 8.00 |  | CC(C)C[C@H](CN)Nc1nc(Nc2ccc(N3CCOCC3)nc2)c(C(N)=O)cc1F [Example 006-191, (R)-6-((1-amino-4-methylpentan-2-yl)amino)-5-fluoro-2-((6-morpholinopyridin-3-yl)amino)nicotinamide]
26 | 7.00 to 7.30 |  | C[C@H](N)[C@H](C)Nc1nc(Nc2ccc3ncccc3c2)c(C(N)=O)cc1F [Example 006-202, 6-(((2S,3S)-3-aminobutan-2-yl)amino)-5-fluoro-2-((quinolin-6-yl)amino)nicotinamide]
27 | 6.00 to 7.00 |  | CC(C)C[C@@H](CN)Nc1nc(Nc2ccc3ncccc3c2)c(C(N)=O)cc1F [Example 006-203, (S)-6-((1-amino-4-methylpentan-2-yl)amino)-5-fluoro-2-((quinolin-6-yl)amino)nicotinamide]
28 | > 8.00 |  | CCCC[C@@H](Nc1nc(Nc2cnc3cc(OC)ccc3c2)c(C(N)=O)cc1F)[C@H](C)N [Example 006-205, 6-(((2S,3R)-2-aminoheptan-3-yl)amino)-5-fluoro-2-((7-methoxyquinolin-3-yl)amino)nicotinamide]
29 | 7.30 to 8.00 |  | C[C@H](Nc1nc(Nc2ccc3ncccc3c2)c(C(N)=O)cc1F)[C@@H](C)N [Example 006-225, 6-(((2S,3R)-3-aminobutan-2-yl)amino)-5-fluoro-2-((quinolin-6-yl)amino)nicotinamide]
30 | 7.30 to 8.00 |  | CC(C)C[C@H](CN)Nc1nc(Nc2cccc3cccnc23)c(C(N)=O)cc1F [Example 006-230, (R)-6-((1-amino-4-methylpentan-2-yl)amino)-5-fluoro-2-((quinolin-8-yl)amino)nicotinamide]
31 | > 8.00 |  | CC(C)C[C@H](CN)Nc1nc(Nc2cncc3ccccc23)c(C(N)=O)cc1F [Example 006-231]
32 | 7.30 to 8.00 |  | CC(C)C[C@H](CN)Nc1nc(Nc2cncc(-c3ccccc3)c2)c(C(N)=O)cc1F [Example 006-235, (R)-6-((1-amino-4-methylpentan-2-yl)amino)-5-fluoro-2-((5-phenylpyridin-3-yl)amino)nicotinamide]
33 | 7.30 to 8.00 |  | CCC[C@@H](Nc1nc(Nc2cccc3cccnc23)c(C(N)=O)cc1F)[C@H](C)N [Example 006-243, 6-(((2S,3R)-2-aminohexan-3-yl)amino)-5-fluoro-2-((quinolin-8-yl)amino)nicotinamide]
34 | 7.30 to 8.00 |  | CCC[C@@H](Nc1nc(Nc2ccc(N3CCOCC3)nc2)c(C(N)=O)cc1F)[C@H](C)N [Example 006-246, 6-(((2S,3R)-2-aminohexan-3-yl)amino)-5-fluoro-2-((6-mopholinopyridin-3-yl)amino)nicotinamide]
35 | 7.30 to 8.00 |  | CC[C@@H](Nc1nc(Nc2ccnc(-n3nccn3)c2)c(C(N)=O)cc1F)[C@H](C)N [Example 006-254, 2-((2-(2H-1,2,3-triazol-2-yl)pyridin-4-yl)amino)-6-(((2S,3R)-2-aminopentan-3-yl)amino)-5-fluoronicotinamide]
36 | 6.00 to 7.00 |  | CC[C@@H](Nc1nc(Nc2cnc(OC)c(-n3nccn3)c2)c(C(N)=O)cc1F)[C@H](C)N [Example 006-273, 6-(((2S,3R)-2-aminopentan-3-yl)amino)-5-fluoro-2-((6-methoxy-5-(2H-1,2,3-triazol-2-yl)pyridin-3-yl)amino)nicotinamide]
37 | > 8.00 |  | CC[C@@H](Nc1nc(Nc2cncc(-c3cc(OC)ccc3F)c2)c(C(N)=O)cc1F)[C@H](C)N [Example 006-280, 6-(((2S,3R)-2-aminopentan-3-yl)amino)-5-fluoro-2-((5-(2-fluoro-5-methoxyphenyl)pyridin-3-yl)amino)nicotinamide]
38 | 7.30 to 8.00 |  | NC[C@@H](CC1CC1)Nc1nc(Nc2cncc(-c3ccccc3)c2)c(C(N)=O)cc1F [Example 006-283, (R)-6-((1-amino-3-cyclopropylpropan-2-yl)amino)-5-fluoro-2-((5-phenylpyridin-3-yl)amino)nicotinamide]
39 | > 8.00 |  | CCCC[C@H](CN)Nc1nc(Nc2ccc3c(cnn3C)c2)c(C(N)=O)cc1F [Example 006-292, (R)-6-((1-aminohexan-2-yl)amino)-5-fluoro-2-((1-methyl-1H-indazol-5-yl)amino)nicotinamide]
